Structures can show the parent of a compound that is named as a salt. Where two headings read alike, the source gives them in different places.

The experiment addresses T1, human A3AR (Homo sapiens, UniProt P0DMS8).
T1 construct: expressed in transfected cells
T1 sequence (P0DMS8 1-318): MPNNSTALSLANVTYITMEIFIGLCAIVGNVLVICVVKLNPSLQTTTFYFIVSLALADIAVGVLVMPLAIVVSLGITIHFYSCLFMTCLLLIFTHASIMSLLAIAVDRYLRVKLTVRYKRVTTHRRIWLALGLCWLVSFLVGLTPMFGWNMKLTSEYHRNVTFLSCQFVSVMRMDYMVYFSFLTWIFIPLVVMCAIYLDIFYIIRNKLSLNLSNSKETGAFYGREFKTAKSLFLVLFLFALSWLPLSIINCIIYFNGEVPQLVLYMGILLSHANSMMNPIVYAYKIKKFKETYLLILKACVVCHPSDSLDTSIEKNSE
Put plainly: LOPAC library primary screen: single concentration (10 μM) inhibition of 25 nM CA200645 binding, PHERAstar FS.

Setting [1] is: % of control wells (1% DMSO and 25 nM CA200645), compounds at 10 µM, whole live cells expressing the A3AR, mean ± SD, three experiments in duplicate.

`Cl.Clc1ccc(Cn2c(CN3CCCC3)nc3ccccc32)cc1` [Clemizole hydrochloride]: the “% 25 nM CA200645 binding” value was 99.7 ± 8.2%.
As to `CC(C)NCC(O)c1ccc(O)c(O)c1.Cl` (single isomer, unassigned; (-)) [(-)-Isoproterenol hydrochloride], the “% 25 nM CA200645 binding” value was 98.6 ± 14.4%.
On the same count and under the same terms, the figure for `CCOC(=O)C1=C(C)NC(C)=C(C(=O)OC)C1c1cccc(Cl)c1Cl` (stereo not drawn) [Felodipine] is 79.1 ± 13.7%; for `CC[C@@H]1Cc2cc(O)ccc2C2=C1c1ccc(O)cc1C[C@H]2CC` it is 85.9 ± 6.0%; for `Br.Br.CN(C)CCCc1cc(C(=O)Nc2ccc(-c3ccncc3)cc2)ccc1O` [GR 55562 dihydrobromide] it is 92.8 ± 13.3%.
For `Cl.NC[C@@H]1O[C@H](c2ccccc2)Cc2c1ccc(O)c2O` [A-68930 hydrochloride], the “% 25 nM CA200645 binding” value is on record as 95.6 ± 9.3%.
On the same count and under the same terms, the same measure for `COc1ccc(Cl)cc1C(=O)NCCc1ccc(S(=O)(=O)NC(=O)NC2CCCCC2)cc1` [Glybenclamide]: 92.8 ± 16.7%.
Consider `CCN1C[C@]2(COC)[C@H](O)C[C@H](OC)[C@@]34[C@@H]5C[C@@]6(O)[C@H](OC(=O)c7ccccc7)[C@@H]5[C@@](OC(C)=O)([C@@H]([C@H](OC)[C@H]23)[C@@H]14)[C@@H](O)[C@@H]6OC` [Aconitine], for which the “% 25 nM CA200645 binding” value is 95.2 ± 4.4%.
With `NC(=S)c1ccc[n+]([C@@H]2O[C@@H](COP(=O)([O-])OP(=O)(O)OC[C@H]3O[C@@H](n4cnc5c(N)ncnc54)C(OP(=O)([O-])O)[C@H]3O)C(O)C2O)c1.[Na+]` (stereo partly drawn) [Thio-NADP sodium], the “% 25 nM CA200645 binding” value amounted to 101.4 ± 10.4%.
The same measure, in the same setting: the same measure for `Cc1nnc(SCC2=C(C(=O)O)N3C(=O)[C@@H](NC(=O)Cn4cnnn4)[C@H]3SC2)s1` [Cefazolin sodium]: 96.3 ± 4.6%; for `Cl.NNC(N)=O` [Semicarbazide hydrochloride]: 98.7 ± 22.6%.
In the case of `CC(C)NC[C@H](O)COc1cccc2ccccc12` [(S)-Propranolol hydrochloride], the “% 25 nM CA200645 binding” value is 100.2 ± 8.9%.
`O=C(O)CCC(C(=O)O)N1C(=O)c2ccccc2C1=O` [L-Glutamic acid, N-phthaloyl-]: the “% 25 nM CA200645 binding” value came out at 89.4 ± 32.8%.
For the compound `O=C(/C=C/c1ccc(O)c(O)c1)OCCc1ccccc1` [Caffeic acid phenethyl ester], the “% 25 nM CA200645 binding” value was found to be 79.3 ± 10.7%.
Still for that read-out and setting: the same measure for `Cc1nc(N=Nc2ccc(C(=O)O)cc2)c(COP(=O)(O)O)c(C=O)c1O` [MRS 2159]: 83.0 ± 11.6%.
The same measure, in the same setting: the figure for `O=c1[nH]c2ccccc2c2ccccc12` [6(5H)-Phenanthridinone] is 41.6 ± 14.1%; for `C#CCOC(=O)C1=CCCN(C)C1` [Arecaidine propargyl ester hydrobromide] it is 96.0 ± 12.2%; for `CNCCc1cnc(CCC(c2ccccc2)c2ccccc2)[nH]1.O=C(O)C(=O)O.O=C(O)C(=O)O` [N-Methylhistaprodifen dioxalate salt] it is 99.4 ± 7.3%.
For `O=C(CCc1ccc(O)cc1)c1c(O)cc(O)cc1O` [Phloretin], the “% 25 nM CA200645 binding” value is 67.7 ± 15.2%.
Consider R(-)-Me5, for which the “% 25 nM CA200645 binding” value came to 100.1 ± 8.0%.
On to `CCN(CC)CCNC(=O)c1cc(S(C)(=O)=O)ccc1OC` [Tiapride hydrochloride], for which the “% 25 nM CA200645 binding” value came to 98.9 ± 15.2%.
In the case of `CCOC(=O)[C@]12CC1/C(=N\O)c1ccccc1O2` (mixture of isomers) [CPCCOEt], under setting [1], the “% 25 nM CA200645 binding” value is reported as 88.3 ± 3.9%.
Regarding `CC(CCc1ccccc1)NCC(O)c1ccc(O)c(C(N)=O)c1` (stereo not drawn) [Labetalol hydrochloride], the “% 25 nM CA200645 binding” value stood at 97.5 ± 13.9%.
As to `O=C(O)CCC(=O)N1CCC[C@H]1C(=O)O` [N-Succinyl-L-proline], the “% 25 nM CA200645 binding” value was determined as 81.8 ± 11.2%.
On to `CCCN1C[C@H](CSC)C[C@@H]2c3cccc4[nH]cc(c34)C[C@H]21` [Pergolide methanesulfonate], for which the “% 25 nM CA200645 binding” value amounted to 82.8 ± 15.4%.
As for `O=c1cc(-c2ccc(O)cc2)oc2cc(O)cc(O)c12` [Apigenin], the “% 25 nM CA200645 binding” value is listed as 41.8 ± 13.4%.
With `NCC(=O)NCCC(c1ccccc1)c1ccccc1` [N-(3,3-Diphenylpropyl)glycinamide], the “% 25 nM CA200645 binding” value came out at 98.7 ± 7.8%.
Same read-out and setting: the same measure for `CCN(CC)CCCC(C)Nc1c2ccc(Cl)cc2nc2ccc(OC)cc12` (stereo not drawn) [Quinacrine dihydrochloride]: 98.2 ± 4.9%; for `CCCN(CCC)CCc1ccc(O)c(O)c1` [Dipropyldopamine hydrobromide]: 101.8 ± 8.0%.
Regarding `Cl.c1ccc(CN2CCC3(CCCc4ccccc43)CC2)cc1` [L-687,384 hydrochloride], the “% 25 nM CA200645 binding” value is listed as 108.6 ± 4.6%.
For `NC(=O)C(=O)O` [Sodium Oxamate], the “% 25 nM CA200645 binding” value came to 96.5 ± 14.4%.
For `OC(CN1CCC(Cc2ccc(F)cc2)CC1)c1ccc(Cl)cc1` (stereo not drawn) [Eliprodil], the “% 25 nM CA200645 binding” value under setting [1] was found to be 98.8 ± 8.5%.
For `CN1C(=O)CC[C@H]1c1cccnc1` [(-)-Cotinine], the “% 25 nM CA200645 binding” value stood at 106.5 ± 4.3%.
As to `CN(C)CCC=C1c2ccccc2C=Cc2ccccc21` [Cyclobenzaprine hydrochloride], the “% 25 nM CA200645 binding” value is listed as 85.3 ± 24.5%.
Still for that read-out and setting: the figure for `NS(=O)(=O)c1cc2c(cc1Cl)NCNS2(=O)=O` [Hydrochlorothiazide] is 95.6 ± 3.9%; for `COCCOC(=O)C1=C(C)NC(C)=C(C(=O)OC/C=C/c2ccccc2)C1c1cccc([N+](=O)[O-])c1` (stereo not drawn) [Cilnidipine] it is 67.0 ± 19.0%.
(+)-Catechin Hydrate: the “% 25 nM CA200645 binding” value is 94.3 ± 10.9%.
For the compound `Nc1ncnc2c1ncn2C1CCCO1` (stereo not drawn) [SQ 22536], the “% 25 nM CA200645 binding” value is 102.7 ± 4.9%.
Take `CC(C)(C)c1cc(/C=C(\C#N)C(N)=S)cc(C(C)(C)C)c1O` [Tyrphostin AG 879]: the “% 25 nM CA200645 binding” value is listed as 57.5 ± 23.0%.
In the case of `CCOC(=O)C(C)(C)Oc1ccc(Cl)cc1` [Clofibrate], the “% 25 nM CA200645 binding” value (% of control wells (1% DMSO and 25 nM CA200645), compounds at 10 µM, […], mean ± SD, three experiments in duplicate) is on record as 81.3 ± 24.9%.
With `Cc1cn[nH]c1.Cl` [4-Methylpyrazole hydrochloride], the “% 25 nM CA200645 binding” value amounted to 102.3 ± 3.8%.
`CCOC(=O)C1=C(C)NC(C)=C(C(=O)OC)C1c1cccc([N+](=O)[O-])c1` (stereo not drawn) [Nitrendipine]: the “% 25 nM CA200645 binding” value turned out to be 96.1 ± 17.4%.
Regarding `CC(C)(CO)Cc1cc(C(C)(C)C)c(O)c(C(C)(C)C)c1` [CGP-7930], the “% 25 nM CA200645 binding” value is listed as 87.6 ± 4.9%.
As for `C=CCc1cccc(/C=N/NC(=O)CN2CCN(Cc3ccccc3)CC2)c1O` [PAC-1], the “% 25 nM CA200645 binding” value is recorded as 105.3 ± 4.5%.
`C[N+](C)(C)CCCCCC[N+](C)(C)C.[Cl-].[Cl-]` [Hexamethonium dichloride]: the “% 25 nM CA200645 binding” value was found to be 100.8 ± 9.2%.
Same read-out and setting: the same measure for `COc1ccccc1N1CCN(CCN2C(=O)CC3(CCCC3)CC2=O)CC1.Cl.Cl` [BMY 7378 dihydrochloride]: 82.8 ± 23.0%.
Still for that read-out and setting: the same measure for `CC(C)NCC(O)c1cc(O)cc(O)c1.CC(C)NCC(O)c1cc(O)cc(O)c1.O=S(=O)(O)O` (stereo not drawn) [Metaproterenol hemisulfate]: 102.0 ± 5.4%; for `CC(C)(C)NC[C@H](O)COc1nsnc1N1CCOCC1.O=C(O)/C=C\C(=O)O` [S(-)-Timolol maleate]: 103.3 ± 4.5%.

Source of the values: publication PMC5733478, “A Non-imaging High Throughput Approach to Chemical Library Screening at the Unmodified Adenosine-A3 Receptor in Living Cells” (Frontiers in Pharmacology, 2017).
